Source: ChEMBL document CHEMBL1201862, “PubChem BioAssay data set” (2004)
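Interpolation was linear, between the two tested concentrations surrounding the appropriate level; five concentrations were tested over 48 hours in 96-well plates. GI50: concentration for 50% inhibition of growth.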 Calls of active or inactive are those of the source. No stated cut-off is given here; in the data, active = GI50 up to about 1.1 µM and inactive = higher.

What was measured:
Experiment in all cases: NCI-60 cell line screen, 48 h
[1] = tested on: 786-0
[2] = tested on: OVCAR-4
[3] = tested on: RXF 393
[4] = tested on: SF-295
[5] = tested on: COLO 205
[6] = tested on: MOLT-4
[7] = tested on: DU-145
[8] = tested on: NCI-H23
[9] = tested on: SW-620
[10] = tested on: HCT-15
[11] = tested on: A549
[12] = tested on: OVCAR-5
[13] = tested on: LOX IMVI
[14] = tested on: HCT-116
[15] = tested on: CAKI-1
[16] = tested on: PC-3
[17] = tested on: SF-268
[18] = tested on: NCI-H460
[19] = tested on: LXFL 529
[20] = tested on: DMS-273

c1cncc(CSc2ncnc3[nH]cnc23)c1
GI50 [1]: > 100 µM (inactive) | GI50 [2]: > 100 µM (inactive) | GI50 [3]: > 100 µM (inactive) | GI50 [4]: > 100 µM (inactive) | GI50 [5]: > 100 µM (inactive) | GI50 [6]: > 100 µM (inactive) | GI50 [7]: > 100 µM (inactive) | GI50 [8]: > 100 µM (inactive) | GI50 [9]: > 100 µM (inactive) | GI50 [10]: > 100 µM | GI50 [11]: > 100 µM (inactive) | GI50 [12]: > 100 µM (inactive) | GI50 [13]: > 100 µM (inactive) | GI50 [14]: > 100 µM (inactive) | GI50 [15]: > 100 µM (inactive) | GI50 [16]: > 100 µM (inactive) | GI50 [17]: > 100 µM (inactive) | GI50 [18]: > 100 µM (inactive)

CCOC(=O)NC(=O)c1cn(CCCOC(=O)CCCCCCCCCCC(=O)OCCCn2cc(C(=O)NC(=O)OCC)c(=O)[nH]c2=O)c(=O)[nH]c1=O
GI50 [1]: > 100 µM (inactive) | GI50 [2]: > 100 µM (inactive) | GI50 [3]: > 10 µM (inactive) | GI50 [4]: > 100 µM (inactive) | GI50 [19]: > 100 µM (inactive) | GI50 [5]: > 100 µM (inactive) | GI50 [6]: > 100 µM (inactive) | GI50 [8]: > 100 µM (inactive) | GI50 [9]: > 100 µM (inactive) | GI50 [11]: > 100 µM (inactive) | GI50 [12]: > 100 µM (inactive) | GI50 [13]: > 100 µM (inactive) | GI50 [14]: > 100 µM (inactive) | GI50 [17]: > 100 µM (inactive) | GI50 [18]: > 100 µM (inactive)

CN1C(c2ccccc2)=CC(=O)C(O)=C(c2ccccc2)S1(=O)=O
GI50 [1]: > 100 µM (inactive) | GI50 [2]: > 100 µM (inactive) | GI50 [3]: > 100 µM (inactive) | GI50 [4]: > 100 µM (inactive) | GI50 [5]: > 100 µM (inactive) | GI50 [6]: > 100 µM (inactive) | GI50 [7]: > 100 µM (inactive) | GI50 [8]: > 100 µM (inactive) | GI50 [9]: > 100 µM (inactive) | GI50 [10]: > 100 µM | GI50 [11]: > 100 µM (inactive) | GI50 [12]: > 100 µM (inactive) | GI50 [13]: > 100 µM (inactive) | GI50 [14]: > 100 µM (inactive) | GI50 [15]: > 100 µM (inactive) | GI50 [16]: > 100 µM (inactive) | GI50 [17]: > 100 µM (inactive) | GI50 [18]: > 100 µM (inactive)

CC(C)(Cl)C(Cl)CC/C(CBr)=C(\Cl)CCl (centres undefined)
GI50 [1]: 2.55 µM (inactive) | GI50 [2]: 2.79 µM (inactive) | GI50 [3]: 10.6 µM (inactive) | GI50 [4]: 16.3 µM (inactive) | GI50 [5]: 4.89 µM (inactive) | GI50 [6]: 0.491 µM (active) | GI50 [7]: 13.4 µM (inactive) | GI50 [8]: 3.87 µM (inactive) | GI50 [9]: 1.96 µM (inactive) | GI50 [10]: 1.97 µM | GI50 [11]: 18 µM (inactive) | GI50 [12]: 14.7 µM (inactive) | GI50 [13]: 0.406 µM (active) | GI50 [14]: 3.93 µM (inactive) | GI50 [15]: 5.09 µM (inactive) | GI50 [16]: 7.31 µM (inactive) | GI50 [17]: 7.8 µM (inactive) | GI50 [18]: 12.7 µM (inactive)

CNc1ccc([N+](=O)[O-])c2c(NCCCN(C)C)ccnc12
GI50 [1]: > 100 µM (inactive) | GI50 [2]: > 100 µM (inactive) | GI50 [4]: > 100 µM (inactive) | GI50 [5]: > 100 µM (inactive) | GI50 [6]: > 100 µM (inactive) | GI50 [8]: 99.1 µM (inactive) | GI50 [9]: > 100 µM (inactive) | GI50 [10]: > 100 µM | GI50 [11]: > 100 µM (inactive) | GI50 [12]: > 100 µM (inactive) | GI50 [13]: > 100 µM (inactive) | GI50 [14]: > 100 µM (inactive) | GI50 [20]: > 100 µM (inactive) | GI50 [15]: > 100 µM (inactive) | GI50 [17]: > 100 µM (inactive) | GI50 [18]: > 100 µM (inactive)

CC1(C)[C@@H]2C[C@H]1[C@@H](Cc1cccc(C[C@H]3c4cc(-c5ccccn5)ncc4[C@H]4C[C@@H]3C4(C)C)c1)c1cc(-c3ccccn3)ncc12
GI50 [1]: 2.1 µM (inactive) | GI50 [2]: > 100 µM (inactive) | GI50 [3]: 4.39 µM (inactive) | GI50 [4]: 0.69 µM (active) | GI50 [5]: 2.93 µM (inactive) | GI50 [6]: 1.41 µM (inactive) | GI50 [7]: 1.09 µM (active) | GI50 [8]: 4.9 µM (inactive) | GI50 [9]: 8.45 µM (inactive) | GI50 [10]: 8.24 µM | GI50 [11]: 2.76 µM (inactive) | GI50 [12]: > 72.4 µM (inactive) | GI50 [13]: 1.75 µM (inactive) | GI50 [14]: 1.09 µM (active) | GI50 [15]: 1.75 µM (inactive) | GI50 [16]: 12.6 µM (inactive) | GI50 [17]: 1.97 µM (inactive) | GI50 [18]: 0.889 µM (active)

C#CCNC(CCCNC(=N)N)C(=O)O (centres undefined)
GI50 [1]: > 100 µM (inactive) | GI50 [2]: > 100 µM (inactive) | GI50 [3]: > 100 µM (inactive) | GI50 [4]: > 100 µM (inactive) | GI50 [5]: > 100 µM (inactive) | GI50 [6]: > 100 µM (inactive) | GI50 [7]: > 100 µM (inactive) | GI50 [8]: > 100 µM (inactive) | GI50 [9]: > 100 µM (inactive) | GI50 [10]: > 100 µM | GI50 [11]: > 100 µM (inactive) | GI50 [12]: > 100 µM (inactive) | GI50 [13]: > 100 µM (inactive) | GI50 [14]: > 100 µM (inactive) | GI50 [15]: > 100 µM (inactive) | GI50 [16]: > 100 µM (inactive) | GI50 [17]: > 100 µM (inactive) | GI50 [18]: > 100 µM (inactive)

COc1ccc(C2SC(=N)Nc3c2c(C)nn3C(=O)c2ccccc2O)cc1OC (centres undefined)
GI50 [1]: 7.1 µM (inactive) | GI50 [2]: 7.93 µM (inactive) | GI50 [3]: 3.61 µM (inactive) | GI50 [4]: 5.69 µM (inactive) | GI50 [5]: > 10 µM (inactive) | GI50 [6]: 4.06 µM (inactive) | GI50 [7]: 4.3 µM (inactive) | GI50 [8]: 3.52 µM (inactive) | GI50 [9]: > 10 µM (inactive) | GI50 [10]: 4.78 µM | GI50 [11]: 3.4 µM (inactive) | GI50 [12]: > 10 µM (inactive) | GI50 [13]: 4.58 µM (inactive) | GI50 [14]: 2.37 µM (inactive) | GI50 [15]: 6.59 µM (inactive) | GI50 [16]: 4.5 µM (inactive) | GI50 [17]: 5.32 µM (inactive) | GI50 [18]: 4.68 µM (inactive)
